Tests used:
[1] = system: wheat rust fungus (Puccinia recondita); assay: Test Example 4: foliar spray of flowable formulations on wheat, wheat rust lesion area; type: in vivo; settings: foliar spray on wheat one day before inoculation, lesion area after ten days at 23° C.
Protocol: Five (5) parts of the present compound 1, 35 parts of a mixture of white carbon and ammonium polyoxyethylene alkyl ether sulfate (the weight ratio of 1:1) and […] of water were mixed, and the mixture was then finely-ground by a wet grinding method to obtain a flowable formulation comprising the present compound 1. Separately, the flowable formulation comprising the present compound 2-1 was prepared according to the above-mentioned similar method except that the present compound 2-1 was used instead of the present compound 1 to form a flowable formulation comprising the present compound 2-1.
Each of the above-mentioned respective flowable formulations, and the flowable formulation comprising the present compound 1 and the present compound 2-1 that was prepared according to the above-mentioned Formulation Example 3 was diluted with water such that each concentration of the respective compounds in the dilution solutions was adjusted to that indicated in Table 6, to prepare the dilution solutions, respectively.
A plastic pot was filled with soil, and thereto wheat (cultivar. Shirogane) was seeded, and the plants were grown in a greenhouse for ten days. […]
From each of the lesion area of the treated group and the untreated group, respectively, the efficacy of the treated group was calculated by the below-mentioned Equation 2. […]

[2] = system: wheat leaf blight fungus; assay: Test Example 3: growth of wheat leaf blight fungus in YBG medium, microtiter plate; type: cell-based, Mycosphaerella graminicola; settings: 18° C., six days, absorbance 550 nm
Protocol: The present compound 1 or the present compound 2-1 was dissolved into dimethyl sulfoxide such that each concentration of the present compound 1 or the present compound 2-1 was adjusted to one hundred fifty times as much as the concentration indicated in the below-mentioned Table 5. The resultant agent solution was dispensed into a microtiter plate (with 96 wells) in 1 μl portion thereof per well. One hundred forty nine (149) μl of YBG medium (which was prepared by dissolving 10 g of yeast extract, 10 g of Bacto Peptone, and 20 mL of glycerol into 1 L of water, followed by sterilizing the medium) was dispensed into the wells to which the agent solution(s) was/were dispensed. The plate was cultivated at 18° C. for six days, thereby allowing wheat leaf blight fungus to undergo proliferation, and the absorbance at 550 nm of each well of the micro titer plate was then measured to examine a degree of growth of the wheat leaf blight fungus (hereinafter referred to as “treated group”).
Whereas, wheat leaf blight fungus was proliferated similarly to the case of the treated group except that dimethyl sulfoxide was used instead of the agent solution, and the degree of the growth was examined (hereinafter referred to as “untreated group”). The efficacy was calculated from the respective obtained degree of growth by the below-mentioned “Equation 1”. […]

CC1CC(C)(C)c2cccc(NC(=O)c3cn(C)nc3C(F)F)c21 (stereo not shown) [Present compound 1]
Efficacy (%) ([1]; 0.0005 ppm): 56%
Efficacy (%) ([1]; 0.01 ppm): 68%
Efficacy (%) ([2]; concentration in medium 0.005 ppm): 15%
Efficacy (%) ([2]; concentration in medium 0.1 ppm): 70%

From patent US10349659B2, “Plant disease control composition and plant disease control method” (SUMITOMO CHEMICAL COMPANY, LIMITED, priority 2015, dated 2019)
